Legend:
pseudovirus HIV-1 HXB2 = experiment: organism not typed; format: cell-based; settings: anti-HIV-1 activity, single-cycle assay, TZM-bl cells, pseudovirus HIV-1 HXB2, read-out: IC50
TZM-bl cells = settings: human, 3 days
Experimental: (§1) The anti-HIV-1 activity was assessed in a single-cycle assay by infecting TZM-bl indicator cells with the pseudovirus HIV-1 HXB2 according to established procedures (F. Curreli, Y. D. Kwon, D. S. Belov, R. R. Ramesh, A. V. Kurkin, A. Altieri, P. D. Kwong, A. K. Debnath, J Med Chem 2017, 60, 3124-3153; which is incorporated herein by reference for all that it teaches about the conduct and interpretation of the assay).
(§2) The cytotoxicity of the small polycyclic molecules in TZM-bl cells was determined by using the colorimetric method CellTiter 96® AQueous One Solution Cell Proliferation Assay (MTS) (Promega) following the manufacturer's instructions. Briefly, TZM-bl cells were platted in a 96-well tissue culture plate at 1×10^4/well and cultured at 37° C. Following overnight incubation, the cells were incubated with 100 μl of the compounds at graded concentrations and cultured for 3 days. The MTS reagent was added to the cells and incubated for 4 h at 37° C. The absorbance was recorded at 490 nm.

in vitro = settings: human
Experimental: as §1, §2

[1] = system: panel of HIV-1 Env Pseudoviruses (49 clones of clinical isolates, subtypes A, B, C, D, Arec); format: cell-based; settings: 49 HIV-1 clones of clinical isolates

NCC(NC(=O)c1ccc(-c2ccc(Cl)cn2)[nH]1)c1ncc(CO)s1 (stereo not shown) [Compound 1, N-(2-Amino-1-(5-(hydroxymethyl)thiazol-2-yl)ethyl)-5-(5-chloropyridin-2-yl)-1H-pyrrole-2-carboxamide]
IC50 (pseudovirus HIV-1 HXB2): 0.85 ± 0.1 µM
CC50 (TZM-bl cells): 144 ± 7.5 µM
CC50 at 3 days (in vitro; CC50, cytotoxicity, TZM-bl cells, MTS, 3 days): > 100 µM

Cc1cc(-c2ccc(C(F)(F)F)cn2)[nH]c1C(=O)NC(CN)c1ncc(CO)s1 (stereo not shown) [Compound 8, N-(2-amino-1-(5-(hydroxymethyl)thiazol-2-yl)ethyl)-3-methyl-5-(5-(trifluoromethyl)pyridin-2-yl)-1H-pyrrole-2-carboxamide]
anti-HIV-1 activity against panel of HIV-1 Env pseudotypes (in words) [1]: sub-micromolar
CC50 (TZM-bl cells): 109 ± 2 µM

CC(C)(N)C(NC(=O)c1ccc(-c2ccc(C(F)(F)F)cn2)[nH]1)c1ncc(CO)s1 (stereo not shown) [Compound 9, N-(2-Amino-1-(5-(hydroxymethyl)thiazol-2-yl)-2-methylpropyl)-5-(5-(trifluoromethyl)pyridin-2-yl)-1H-pyrrole-2-carboxamide]
CC50 (TZM-bl cells): 74 ± 3.6 µM
CC50 at 3 days (in vitro; CC50): < 50 µM

NCC(NC(=O)c1ccc(-c2ccc(C(F)(F)F)cn2)[nH]1)c1nc(CCCO)cs1 (stereo not shown) [Compound 27, N-(2-Amino-1-(4-(3-hydroxypropyl)thiazol-2-yl)ethyl)-5-(5-(trifluoromethyl)pyridin-2-yl)-1H-pyrrole-2-carboxamide]
IC50 (pseudovirus HIV-1 HXB2): 2.3 ± 0.3 µM
CC50 (TZM-bl cells): > 114 µM
CC50 at 3 days (in vitro; CC50): > 100 µM

Cc1cc(-c2ccc(C(F)(F)F)cn2)[nH]c1C(=O)NC(CN)c1nc(CO)cs1 (stereo not shown) [Compound 33, N-(2-Amino-1-(4-(hydroxymethyl)thiazol-2-yl)ethyl)-3-methyl-5-(5-(trifluoromethyl)pyridin-2-yl)-1H-pyrrole-2-carboxamide]
anti-HIV-1 activity against panel of HIV-1 Env pseudotypes (in words) [1]: sub-micromolar
CC50 at 3 days (in vitro; CC50): 85 ± 3 µM

Cc1cc(-c2ccc(C(F)(F)F)cn2)[nH]c1C(=O)NC(CN)c1cnc(CO)s1 (stereo not shown) [Compound 62, N-(2-Amino-1-(2-(hydroxymethyl)thiazol-5-yl)ethyl)-3-methyl-5-(5-(trifluoromethyl)pyridin-2-yl)-1H-pyrrole-2-carboxamide]
IC50 (pseudovirus HIV-1 HXB2): 1.9 ± 0.25 µM
CC50 (TZM-bl cells): 63.8 ± 2.1 µM

Cc1cc(-c2ccc(C(F)(F)F)cn2)[nH]c1C(=O)NC(CN)c1csc(CO)n1 (stereo not shown) [Compound 64, N-(2-Amino-1-(2-(hydroxymethyl)thiazol-4-yl)ethyl)-3-methyl-5-(5-(trifluoromethyl)pyridin-2-yl)-1H-pyrrole-2-carboxamide]
IC50 (pseudovirus HIV-1 HXB2): 1.3 ± 0.2 µM
CC50 (TZM-bl cells): 47.8 ± 5.9 µM

NCC(NC(=O)c1ccc(-c2ccc(C(F)(F)F)cn2)[nH]1)c1csc(CO)n1 (stereo not shown) [Compound 66, N-(2-Amino-1-(2-(hydroxymethyl)thiazol-4-yl)ethyl)-5-(5-(trifluoromethyl)pyridin-2-yl)-1H-pyrrole-2-carboxamide]
IC50 (pseudovirus HIV-1 HXB2): 1.7 ± 0.2 µM
CC50 (TZM-bl cells): 85.1 ± 2.5 µM

NCC(NC(=O)c1ccc(-c2ccc(Cl)cn2)[nH]1)c1csc(CO)n1 (stereo not shown) [Compound 68, N-(2-Amino-1-(2-(hydroxymethyl)thiazol-4-yl)ethyl)-5-(5-chloropyridin-2-yl)-1H-pyrrole-2-carboxamide]
IC50 (pseudovirus HIV-1 HXB2; Human immunodeficiency virus 1, HXB2, TZM-bl): 8.2 ± 2.1 µM
CC50 (TZM-bl cells): > 106 µM

NCC(NC(=O)c1ccc(-c2ccc(C(F)(F)F)cn2)[nH]1)c1csc(C(=O)NCCO)n1 (stereo not shown) [Compound 70, 4-(2-Amino-1-(5-(5-(trifluoromethyl)pyridin-2-yl)-1H-pyrrole-2-carboxamido)ethyl)-N-(2-hydroxyethyl)thiazole-2-carboxamide]
IC50 (pseudovirus HIV-1 HXB2): > 21.3 µM
CC50 (TZM-bl cells): > 107 µM

Source: patent US20230058961A1, “SUBSTITUTED HETEROCYCLICS WITH THERAPEUTIC ACTIVITY IN HIV” (New York Blood Center, Inc., priority 2019, published 2023)
